Data reported in US10899793B2, “Melanocortin ligands and methods of use thereof” (priority 2016, dated 2021).
Square brackets hold non-standard residues; d marks the D form. Peptide text beside a SMILES is read from it. Bip = N[C@@H](Cc1ccc(-c2ccccc2)cc1)C(=O)O; dPhe(4-I) = N[C@H](Cc1ccc(I)cc1)C(=O)O; 2Nal = N[C@@H](Cc1ccc2ccccc2c1)C(=O)O; d2Nal = N[C@H](Cc1ccc2ccccc2c1)C(=O)O; Bta = N[C@@H](Cc1csc2ccccc12)C(=O)O; Tic = O=C(O)[C@@H]1Cc2ccccc2CN1; Nle = CCCC[C@H](N)C(=O)O

Experiments:
[1] = biological target: T1, mMC3R (Mus musculus, UniProt P33033); assay: AlphaScreen cAMP agonist assay at mMC3R; details: for mMC3R Agonist, percent of the NDP-MSH maximal positive control: Table 1, @ 100 μM
T1 sequence (P33033 whole entry): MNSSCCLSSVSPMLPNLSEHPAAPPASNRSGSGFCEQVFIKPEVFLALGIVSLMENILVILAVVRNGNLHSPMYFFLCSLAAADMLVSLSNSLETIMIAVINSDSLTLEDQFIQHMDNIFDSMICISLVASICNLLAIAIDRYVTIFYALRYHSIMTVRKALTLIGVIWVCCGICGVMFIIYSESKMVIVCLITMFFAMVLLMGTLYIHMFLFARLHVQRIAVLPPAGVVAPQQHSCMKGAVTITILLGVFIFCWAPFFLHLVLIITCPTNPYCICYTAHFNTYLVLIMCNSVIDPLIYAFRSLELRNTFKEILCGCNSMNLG

[2] = biological target: T2, mMC4R (Mus musculus, UniProt P56450); assay: AlphaScreen cAMP agonist assay at mMC4R; details: for activation at 100 µM: read-out: mMC4R Agonist, percent of the NDP-MSH maximal positive control
T2 sequence (P56450 whole entry): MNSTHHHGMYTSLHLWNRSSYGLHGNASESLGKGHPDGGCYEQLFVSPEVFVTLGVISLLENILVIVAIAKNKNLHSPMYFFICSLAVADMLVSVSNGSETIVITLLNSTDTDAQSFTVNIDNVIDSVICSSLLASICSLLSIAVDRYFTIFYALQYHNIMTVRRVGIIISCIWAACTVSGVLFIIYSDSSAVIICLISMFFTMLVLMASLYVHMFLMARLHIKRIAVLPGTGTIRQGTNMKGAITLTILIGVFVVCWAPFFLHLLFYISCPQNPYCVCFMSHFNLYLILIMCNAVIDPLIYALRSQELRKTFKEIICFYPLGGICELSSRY

[3] = biological target: mMC1R (Mus musculus, UniProt Q01727); assay: AlphaScreen cAMP agonist assay at mMC1R; details: for mMC1R percent of the NDP-MSH maximal positive control: Table 2, @ 100 μM
Sequence of mMC1R (Q01727 whole entry): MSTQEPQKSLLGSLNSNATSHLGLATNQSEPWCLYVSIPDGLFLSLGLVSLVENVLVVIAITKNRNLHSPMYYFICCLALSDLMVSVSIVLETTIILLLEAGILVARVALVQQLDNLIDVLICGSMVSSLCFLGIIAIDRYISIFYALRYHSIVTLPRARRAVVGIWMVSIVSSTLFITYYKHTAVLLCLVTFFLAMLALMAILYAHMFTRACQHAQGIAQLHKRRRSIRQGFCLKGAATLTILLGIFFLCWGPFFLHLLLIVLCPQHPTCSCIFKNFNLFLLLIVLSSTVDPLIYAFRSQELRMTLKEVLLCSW

[4] = biological target: mMC5R (Mus musculus, UniProt P41149); assay: AlphaScreen cAMP agonist assay at mMC5R; details: for activation at 100 µM: read-out: percent of the NDP-MSH maximal positive control, Table 2
Sequence of mMC5R (P41149 whole entry): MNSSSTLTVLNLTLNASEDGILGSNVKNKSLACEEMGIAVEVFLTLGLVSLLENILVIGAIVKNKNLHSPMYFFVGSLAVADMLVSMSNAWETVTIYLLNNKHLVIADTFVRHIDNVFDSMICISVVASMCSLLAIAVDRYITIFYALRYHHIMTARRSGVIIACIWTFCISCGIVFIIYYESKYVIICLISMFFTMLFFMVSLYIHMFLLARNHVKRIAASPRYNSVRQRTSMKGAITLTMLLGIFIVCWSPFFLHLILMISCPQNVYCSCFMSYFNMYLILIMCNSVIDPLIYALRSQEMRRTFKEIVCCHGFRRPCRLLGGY

[5] = biological target: T2, mMC4R; details: for mMC4R Antagonist pA2 ± SEM: Table 1, pA2 = -Log(Ki)
[6] = biological target: T1, mMC3R; details: Schild analysis; for mMC3R Antagonist pA2 ± SEM: Table 1, pA2 = -Log(Ki), Full Agonist = full dose-response, No Activity = no shift in EC50

Compound	mMC3R Agonist, percent of the NDP-MSH maximal positive control [1] [% @ 100 μM]	activation at 100 µM [2] [%]	mMC1R percent of the NDP-MSH maximal positive control [3] [% @ 100 μM]	mMC3R Antagonist pA2 ± SEM [6]	mMC4R Antagonist pA2 ± SEM ([5]; Schild analysis)	activation at 100 µM [4] [%]	further results
CCCC[C@H](NC(=O)[C@H](CO)NC(=O)[C@H](Cc1ccc(O)cc1)NC(=O)[C@H](CO)NC(C)=O)C(=O)N[C@@H](CCC(=O)O)C(=O)N[C@@H](Cc1c[nH]cn1)C(=O)N[C@@H](CCCNC(=N)N)C(=O)N[C@H](Cc1ccccc1)C(=O)N[C@@H](Cc1c[nH]c2ccccc12)C(=O)NCC(=O)N[C@@H](CCCCN)C(=O)N1CCC[C@H]1C(=O)N[C@H](C(N)=O)C(C)C [SKY2-125-3, Ac-Ser-Tyr-Ser-Nle-Glu-His-Arg-DPhe-Trp-Gly-Lys-Pro-Val-NH2] (Ac-SYS[Nle]EHR[dF]WGKPV-NH2)							EC50 [1]: 1.8 µM; EC50 [2]: 9.5 µM; EC50 [3]: 0.38 ± 0.07 µM; EC50 [4]: 1.6 µM
CC(=O)N[C@@H](CCCNC(=N)N)C(=O)N[C@@H](CCCNC(=N)N)C(=O)N[C@H](Cc1ccc(I)cc1)C(=O)N[C@@H](Cc1ccc(-c2ccccc2)cc1)C(N)=O [SKY4-48-2, Ac-Arg-Arg-(pI)DPhe-Bip-NH2]	45	32	44				antagonist pA2 at the mMC4R [5]: 5.8
CC(=O)N[C@@H](Cc1c[nH]cn1)C(=O)N[C@@H](CCCNC(=N)N)C(=O)N[C@H](Cc1ccc(I)cc1)C(=O)N[C@@H](Cc1ccc(-c2ccccc2)cc1)C(N)=O [SKY4-48-3, Ac-His-Arg-(pI)DPhe-Bip-NH2] (Ac-HR[dPhe(4-I)][Bip]-NH2)	53	43		No Activity	No Activity		
CC(=O)N[C@@H](Cc1ccc(-c2ccccc2)cc1)C(=O)N[C@@H](CCCNC(=N)N)C(=O)N[C@H](Cc1ccc(I)cc1)C(=O)N[C@@H](Cc1ccc(-c2ccccc2)cc1)C(N)=O [SKY4-48-4, Ac-Bip-Arg-(pI)DPhe-Bip-NH2] (Ac-[Bip]R[dPhe(4-I)][Bip]-NH2)		24		No Activity	No Activity		
CC(=O)N[C@@H](Cc1csc2ccccc12)C(=O)N[C@@H](CCCNC(=N)N)C(=O)N[C@H](Cc1ccc(I)cc1)C(=O)N[C@@H](Cc1ccc(-c2ccccc2)cc1)C(N)=O [SKY4-48-5, Ac-3Bal-Arg-(pI)DPhe-Bip-NH2] (Ac-[Bta]R[dPhe(4-I)][Bip]-NH2)	51	35		No Activity	No Activity		
CC(=O)N[C@@H](Cc1ccccc1)C(=O)N[C@@H](CCCNC(=N)N)C(=O)N[C@H](Cc1ccc(I)cc1)C(=O)N[C@@H](Cc1ccc(-c2ccccc2)cc1)C(N)=O [SKY4-48-7, Ac-Phe-Arg-(pI)DPhe-Bip-NH2] (Ac-FR[dPhe(4-I)][Bip]-NH2)	30		67	No Activity	No Activity		
CC(=O)N1Cc2ccccc2C[C@H]1C(=O)N[C@@H](CCCNC(=N)N)C(=O)N[C@H](Cc1ccc(I)cc1)C(=O)N[C@@H](Cc1csc2ccccc12)C(N)=O [SKY4-48-14, Ac-Tic-Arg-(pI)DPhe-3Bal-NH2] (Ac-[Tic]R[dPhe(4-I)][Bta]-NH2)			38	Full Agonist			
CC(=O)N[C@@H](Cc1ccc(-c2ccccc2)cc1)C(=O)N[C@@H](CCCNC(=N)N)C(=O)N[C@H](Cc1ccc(I)cc1)C(=O)N[C@@H](Cc1ccc2ccccc2c1)C(N)=O [SKY4-48-36, Ac-Bip-Arg-(pI)DPhe-Nal(2′)-NH2] (Ac-[Bip]R[dPhe(4-I)][2Nal]-NH2)			23	No Activity	No Activity	21	
CC(=O)N1Cc2ccccc2C[C@H]1C(=O)N[C@@H](CCCNC(=N)N)C(=O)N[C@H](Cc1ccc(I)cc1)C(=O)N[C@@H](Cc1ccc2ccccc2c1)C(N)=O [SKY4-48-38, Ac-Tic-Arg-(pI)DPhe-Nal(2′)-NH2] (Ac-[Tic]R[dPhe(4-I)][2Nal]-NH2)			66	No Activity		48	
CC(=O)N[C@@H](Cc1c[nH]cn1)C(=O)N[C@@H](CCCNC(=N)N)C(=O)N[C@H](Cc1ccc(I)cc1)C(=O)N[C@H](Cc1ccc2ccccc2c1)C(N)=O [SKY4-48-43, Ac-His-Arg-(pI)DPhe-DNal(2′)-NH2] (Ac-HR[dPhe(4-I)][d2Nal]-NH2)		50		Full Agonist		47	
CC(=O)N1Cc2ccccc2C[C@H]1C(=O)N[C@@H](CCCNC(=N)N)C(=O)N[C@H](Cc1ccc(I)cc1)C(=O)N[C@H](Cc1ccc2ccccc2c1)C(N)=O [SKY4-48-46, Ac-Tic-Arg-(pI)DPhe-DNal(2′)-NH2] (Ac-[Tic]R[dPhe(4-I)][d2Nal]-NH2)	42	33		No Activity	No Activity	74	
CC(=O)N[C@@H](Cc1ccc2ccccc2c1)C(=O)N[C@@H](CCCNC(=N)N)C(=O)N[C@H](Cc1ccc(I)cc1)C(=O)N[C@H](Cc1ccc2ccccc2c1)C(N)=O [SKY4-48-48, Ac-Nal(2′)-Arg-(pI)DPhe-DNal(2′)-NH2] (Ac-[2Nal]R[dPhe(4-I)][d2Nal]-NH2)	31		53	No Activity	No Activity	40	
CC(=O)N[C@H](Cc1ccc2ccccc2c1)C(=O)N[C@@H](CCCNC(=N)N)C(=O)N[C@H](Cc1ccc(I)cc1)C(=O)N[C@H](Cc1ccc2ccccc2c1)C(N)=O [SKY4-48-49, Ac-DNal(2′)-Arg-(pI)DPhe-DNal(2′)-NH2] (Ac-[d2Nal]R[dPhe(4-I)][d2Nal]-NH2)	40	37				43	
CC(=O)N[C@H](Cc1c[nH]c2ccccc12)C(=O)N[C@H](CCCNC(=N)N)C(=O)N[C@@H](Cc1ccccc1)C(=O)N[C@H](Cc1c[nH]cn1)C(N)=O [SKY5-121, Ac-DTrp-DArg-Phe-DHis-NH2] (Ac-[dW][dR]F[dH]-NH2)							mMC3R pA2 ([6]; Table 5): pA2 = No Activity; mMC4R pA2 ([5]; Table 5, Schild analysis): pA2 = No Activity; EC50 [1]: > 100 µM; EC50 [2]: > 100 µM; EC50 [3]: > 100 µM; mMC5R percent of the NDP-MSH maximal positive control ([4]; Table 5, @ 100 μM): 29% @ 100 μM
CC(=O)N1Cc2ccccc2C[C@H]1C(=O)N[C@@H](CCCNC(=N)N)C(=O)N[C@H](Cc1ccc(I)cc1)C(=O)N[C@@H](Cc1ccc(-c2ccccc2)cc1)C(N)=O [SKY5-146-1, Ac-Tic-Arg-(pI)DPhe-Bip-NH2] (Ac-[Tic]R[dPhe(4-I)][Bip]-NH2)			39	No Activity	No Activity		
CC(=O)N[C@H](Cc1ccc2ccccc2c1)C(=O)N[C@@H](CCCNC(=N)N)C(=O)N[C@H](Cc1ccc(I)cc1)C(=O)N[C@@H](Cc1ccc(-c2ccccc2)cc1)C(N)=O [SKY5-146-2, Ac-DNal(2′)-Arg-(pI)DPhe-Bip-NH2] (Ac-[d2Nal]R[dPhe(4-I)][Bip]-NH2)	30	42					antagonist pA2 at the mMC4R [5]: 6.6
CC(=O)N[C@H](Cc1ccc2ccccc2c1)C(=O)N[C@@H](CCCNC(=N)N)C(=O)N[C@H](Cc1ccc(I)cc1)C(=O)N[C@@H](Cc1ccc2ccccc2c1)C(N)=O [SKY5-146-5, Ac-DNal(2′)-Arg-(pI)DPhe-Nal(2′)-NH2] (Ac-[d2Nal]R[dPhe(4-I)][2Nal]-NH2)	43	39				40	
Ac-SYSMEHRFWGKPV-NH2 [SKY2-125-5]							EC50 [1]: 5.8 µM; fold decreased potency at the mMC3R relative to α-MSH ([1]; Arg-Phe reverse analog vs parent): 45,000 fold; EC50 [2]: 44 µM; EC50 [3]: 3 µM; EC50 [4]: 2.6 µM
